Assay results: US6392118B1, “Mx-1 conditionally immortalized cells” (Neurotech S.A., priority 1994, dated 2002)

Experiments:
[1] = tested on: glial fibrillary acidic protein (GFAP); experiment: GFAP reactivity of neural stem cells encapsulated in BAOs with or without EGF; type: cell-based; conditions: 20 ng/ml EGF
Procedure: Neurospheres were prepared using the methods of Weiss et al., PCT/CA 92/00283. Passage 68 neurospheres were collected and divided. Half of the neurospheres were triturated into a single cell suspension and half remained as clusters. A single cell count was performed on a single cell suspension and it was assumed that the clustered cells were of the same concentration. Single cells and clusters were suspended separately in equal amounts of Vitrogen™ and either neurosphere medium with 20 ng/ml EGF as controls, or PC-1 medium.
Cells were loaded at a density of 25,000 cells/μl into single-skinned hollow fiber PAN/PVC BAOs, prepared substantially as described in Example 2, and then hub sealed. The BAOs were held in either neurosphere+EGF medium or in PC-1 medium (with no EGF).
The BAOs were sacrificed after 3 days and 7 days and were stained for glial fibrillary acidic protein (GFAP) by immunocytochemistry. GFAP is an intermediate filament protein specifically expressed in astrocytes. […]

Row | Substance | GFAP Reactivity ([1]; cell clusters, 3 days) | GFAP Reactivity ([1]; cell clusters, 7 days) | GFAP Reactivity ([1]; single cell, 3 days) | GFAP Reactivity ([1]; single cell, 7 days) | toxicity of scaffold to PC12 cells (PC12 cells)
1 | EGF: epidermal growth factor, 20 ng/ml in neurosphere medium | Negative | Negative | Negative | Negative | 
2 | poly(hydroxyethyl methacrylate) [PHEMA] |  |  |  |  | nontoxic
